Source: patent US5955489A, “Taxane derivatives, the preparation thereof and formulations containing them” (Indea S.p.A., priority 1996, dated 1999)
pIC50: −log10 of the molar value. Read-outs that look alike come from different tables or passages of the source.

What was measured:
[1] = system: Line MDA (normal ovary cell line); assay: cytotoxicity on a normal ovary cell line (Line MDA); assay type: cell-based; conditions: read-out: IC50 Line MDA
[2] = system: Line MCF7-ADRr (adriamycin-resistant); assay: cytotoxicity on an adriamycin-resistant cell line (Line MCF7-ADRr); assay type: cell-based; conditions: read-out: IC50 Line MCF7-ADRr
[3] = Line MDA, normal ovary cell line

Compound | pIC50 [1, 3] | pIC50 [2] | pIC50 [1] | pIC50 ([2]; Line MCF7-ADRr, adriamycin-resistant)
13-(N-Boc-phenylisoserinyl)-10-dehydro-10-deacetyl-baccatine III pyrazoline [Compound of example 4] | 8.92 | 6.58 |  | 
CC(=O)O[C@@]12CO[C@@H]1CC1NN=C3C(=O)C4=C(C)[C@@H](OC(=O)[C@H](O)[C@@H](NC(=O)c5ccccc5)c5ccccc5)C[C@@](O)([C@@H](OC(=O)c5ccccc5)[C@H]2[C@]31C)C4(C)C (stereo partly drawn) [Compound of example 2, 10-deacetyl-10-dehydro-Paclitaxel pyrazoline] |  |  | 8.51 | 
CC(=O)O[C@@]12CO[C@@H]1CC1NN=C3C(=O)C4=C(C)[C@@H](OC(=O)[C@H](O)[C@H](CC(C)C)NC(=O)OC(C)(C)C)C[C@@](O)([C@@H](OC(=O)c5ccccc5)[C@H]2[C@]31C)C4(C)C (stereo partly drawn) [Compound of example 5, 13-(N-Boc-3'-isobutyl)-isoserinyl-10-dehydrobaccatine III pyrazoline] |  |  | 8.85 | 
CC(=O)O[C@@]12CO[C@@H]1CC1NN=C3C(=O)C4=C(C)[C@@H](OC(=O)[C@H](O)[C@@H](NC(=O)OC(C)(C)C)c5ccccc5)[C@@H]5OC(=O)O[C@]5([C@@H](OC(=O)c5ccccc5)[C@H]2[C@]31C)C4(C)C (stereo partly drawn) [Compound of example 6, 13-(N-Boc-phenyl-isoserinyl)-1,14-carbonate10-dehydro-10-deacetyl-baccatine III pyrazoline] |  |  | 8.68 | 
CC(=O)O[C@@]12CO[C@@H]1C[C@H](O)[C@@]1(C)C(=O)[C@H](O)C3=C(C)[C@@H](OC(=O)[C@H](O)[C@@H](NC(=O)OC(C)(C)C)c4ccccc4)C[C@@](O)([C@@H](OC(=O)c4ccccc4)[C@H]21)C3(C)C [Docetaxel, reference compound] | 9.10 |  |  | 6.15
CC(=O)O[C@H]1C(=O)[C@@]2(C)[C@H]([C@H](OC(=O)c3ccccc3)[C@]3(O)C[C@H](OC(=O)[C@H](O)[C@@H](NC(=O)c4ccccc4)c4ccccc4)C(C)=C1C3(C)C)[C@]1(OC(C)=O)CO[C@@H]1C[C@@H]2O [Paclitaxel, reference compound] |  | 5.59 | 8.62 | 
